Key:
S. aureus UAMS-1 [1] = assay: Fractional inhibitory concentration (FIC) testing; type: cell-based, Staphylococcus aureus; conditions: checkerboard, 16 h
Description: Fractional inhibitory concentration (FIC) testing was performed to determine the combined effects of the indicated antibiotic and the putative RnpA inhibitor following the procedures of Odds and colleagues. To do so, individual wells of a 96-well microtiter plate were inoculated with 10^4 colony forming units (CFU) of S. aureus UAMS-1 in MHB. Each row of the plate contained two-fold increasing concentrations of the indicated antibiotic (0, 0.03, 0.06, 0.125, 0.25, 0.5, 1, 2, or 4× MIC), whereas each column contained increasing concentrations of the putative RnpA inhibitor compound (0, 0.03, 0.06, 0.125, 0.25, 0.5, 1, 2, or 4× MIC). Plates were incubated at 37 °C for 16 h and growth was determined by the unaided eye. The FIC was defined using the following formula: FIC = (MIC of Drug A in Combination/MIC of Drug A Alone) + (MIC of Drug B in Combination/MIC of Drug B Alone). A synergistic interaction was defined as an FIC value ≤ 0.5, an additive interaction as 0.5 < FIC < 1, no interaction as 1 ≤ FIC < 4, and an antagonistic interaction as FIC ≥ 4.

Galleria mellonella = Galleria mellonella single tolerated dose (uninfected worms); type: in vivo; conditions: single dose 100 mg·kg^−1, 16 h
Description: (§1) An overnight culture of S. aureus strain UAMS-1 was used to inoculate (1:100 dilution) 25 mL of fresh MH medium and growth at 37 °C on a rotary shaker at 225 rpm to exponential phase (~1 × 10^8 CFU mL^−1). Cultures were pelleted by centrifugation, washed with phosphate buffered saline (PBS), and re-suspended at ~1 × 10^7 CFU·mL^−1 in fresh PBS. G. mellonella larvae weighing 150–250 mg were inoculated with 5 µL of S. aureus into the last left proleg using a 10 µL Hamilton syringe. About 1 h after inoculation, one group of worms was treated with 2 µL DMSO as infected negative control; one group was treated with 2 µL JC2 compound at 100 mg/kg dose; another group was treated with 2 µL vancomycin at 100 mg/kg dose as standard-of-care comparison. Treatments were administered in the same manner as infection, except that each injection was in the next left proleg moving towards the head of the worm. […] In addition to the mock or compound treatment of infected larvae, a group of non-infected worm injected with DMSO or corresponding compounds were used to monitor the impact of physical trauma as well as observe toxicity associated with compound treatment.

[2] = test system: norA mRNA in S. aureus UAMS-1 cells; assay: Cellular norA mRNA turnover (qRT-PCR after rifampin arrest); type: cell-based, Staphylococcus aureus; conditions: 0.5× MIC for 30 min; 5 min post-transcriptional arrest; mock 99%
Description: S. aureus mRNA half-life determinations were performed as previously described. […] Rifampin (Sigma-Aldrich) was added to the culture at a final concentration of 200 μg·mL^−1 to inhibit de novo transcript synthesis. Half of the culture was immediately removed and combined with an equal volume of ice cold acetone:ethanol (1:1 v/v). The remaining culture was returned to the shaking 37 °C incubator for an additional 5 min and then subsequently combined with an equal volume of ice cold acetone:ethanol (1:1 v/v) and stored at −80 °C until processing, as described below.
For total bacterial RNA isolation, cell suspensions were thawed on ice, centrifuged at 3000 rpm for 10 min at 4 °C, the resulting cell pellets were resuspended in ice-cold TE buffer (10 mM Tris-HCl, pH 8.0, 1 mM EDTA), and transferred into a FastPrep bead beater tube containing 0.1 mm silica spheres (MP Biomedicals; Santa Ana, CA, USA). Mixtures were homogenized at 5 m·s^−1 for 20 s, rested on ice for 5 min, and then homogenized again at 4.5 m·s^−1 in a FastPrep-24 instrument. Cellular debris were collected by centrifugation at 13,000 rpm for 15 min at 4 °C, whereas bacterial RNA was isolated from the supernatant using Qiagen RNeasy Mini Kits and miRNeasy Mini Kits were used to isolate total bacterial RNA, following the manufacturer’s instructions. RNA quantity and quality were measured using a NanoDrop 2000 spectrophotometer (ThermoFisher Scientific). For qRT-PCR, 1 μg of total bacterial RNA was treated with 3 units of DNase I (Ambion; Carlsbad, CA, USA) for 1 h at 37 °C to remove any DNA contaminants. RNA cleanup was performed using the Qiagen RNeasy Mini Kit. Subsequently, the BioRad iScript cDNA Synthesis Kit (Hercules, CA, USA) was used to convert 200 ng of RNA into cDNA, which was amplified using the BioRad iQ SYBR Green Supermix per the manufacturer’s instructions and fluorescence was read on the Biorad CFX 96 Connect machine. Transcript levels were compared to the internal control 16S rRNA (ΔΔCt method), and plotted as a fold change compared to control. The following primer pairs were used in this study for qRT-PCR: norA forward—[…] and norA reverse-[…] CTAAG; -15 ptRNA^Tyr forward-[…] and tRNA^Tyr reverse-TGGTG […]; 16S rRNA forward-[…] and 16S rRNA reverse-[…].

HepG2 cells = assay: MTT human cell cytotoxicity testing; type: cell-based; conditions: SAR figures; 4× MIC exposure for 24 h
Description: Human HepG2 hepatocytes were seeded in individual wells of a 96-well cell-culture treated microtiter plate at a concentration of 1 × 10^5 cells per well and incubated in Dulbecco’s Modified Eagle Medium (DMEM) supplemented with 10% fetal bovine serum at 37 °C with 5% carbon dioxide overnight. Cells were then treated with DMSO (negative control) or the indicated agent for 24 h. MTT Cell Proliferation Assay Kits were used to assess viability according to the manufacturer’s recommendations (American Type Culture Collection; Manassas, VA, USA).

S. aureus UAMS-1 [3] = assay: Galleria mellonella model of S. aureus infection; type: in vivo; conditions: 10^4 CFU UAMS-1, single dose 100 mg·kg^−1 1 h post-infection, 16 h; DMSO 60%
Description: as §1

CC1CCCCN1C(=O)Nc1cc(Cl)cc(Cl)c1 (centres unmarked) [JC2] was tested, and the “FIC in combination with ampicillin” value (S. aureus UAMS-1 [1]) was 2, the “FIC in combination with erythromycin” value (S. aureus UAMS-1 [1]) was 2 and the “FIC in combination with mupirocin” value (S. aureus UAMS-1 [1]) was 0.875. For the same molecule, the “FIC in combination with trimethoprim” value (S. aureus UAMS-1 [1]) was 2, the “mortality rate of uninfected worms” value (Galleria mellonella) was “did not display any treatment-associated lethality” and the “norA mRNA degradation” value [2] was 27%. The “MTT = % HepG2 cell survival” value (HepG2 cells) was 87% and the “mortality rate of S. aureus infected worms” value (S. aureus UAMS-1 [3]) was 30%.

Source: PMC6627331, “Identification of Small Molecule Inhibitors of Staphylococcus aureus RnpA” (Antibiotics, 2019)
